Experimental data from US9573954B2, “Pyrazolopyrimidine compounds” (University Health Network, priority 2012, dated 2017).
Read-outs that look alike come from different tables or passages of the source.

Tests used:
human TTK = target: T1, human TTK (Homo sapiens, UniProt P33981); assay: TTK inhibition assay (indirect ELISA); assay type: biochemical
T1 construct: Active TTK was purchased from Invitrogen as an amino terminal GST fusion of full length human TTK; purchased Invitrogen
T1 sequence (P33981 1-857): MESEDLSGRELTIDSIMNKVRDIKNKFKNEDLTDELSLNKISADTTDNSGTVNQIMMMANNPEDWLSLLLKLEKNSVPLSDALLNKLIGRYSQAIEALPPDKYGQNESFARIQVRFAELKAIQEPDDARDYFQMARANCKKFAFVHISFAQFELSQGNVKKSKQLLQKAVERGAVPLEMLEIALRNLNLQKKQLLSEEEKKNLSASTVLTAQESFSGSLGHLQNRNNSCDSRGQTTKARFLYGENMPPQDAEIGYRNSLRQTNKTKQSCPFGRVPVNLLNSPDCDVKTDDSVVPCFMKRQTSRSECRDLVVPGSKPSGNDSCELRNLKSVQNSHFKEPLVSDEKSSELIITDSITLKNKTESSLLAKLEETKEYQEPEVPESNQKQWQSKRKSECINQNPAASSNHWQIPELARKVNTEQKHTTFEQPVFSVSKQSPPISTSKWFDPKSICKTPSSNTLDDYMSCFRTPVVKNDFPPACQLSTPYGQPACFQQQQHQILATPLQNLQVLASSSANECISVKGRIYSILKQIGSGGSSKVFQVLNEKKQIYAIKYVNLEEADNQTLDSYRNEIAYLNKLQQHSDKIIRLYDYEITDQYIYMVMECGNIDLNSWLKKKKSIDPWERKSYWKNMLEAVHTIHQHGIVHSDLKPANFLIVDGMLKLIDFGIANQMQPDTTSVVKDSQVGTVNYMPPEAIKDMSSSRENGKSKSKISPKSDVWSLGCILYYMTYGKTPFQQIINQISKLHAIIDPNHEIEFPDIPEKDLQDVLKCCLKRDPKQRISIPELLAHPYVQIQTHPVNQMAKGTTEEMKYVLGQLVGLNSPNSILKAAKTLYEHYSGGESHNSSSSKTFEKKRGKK
Procedure, shortened: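 Activity detected by indirect ELISA after compounds sat with full-length GST-TTK for 5 min prior to starting the reaction with ATP. IC50 came from a four-parameter logistic curve of % inhibition, calculated against background and uninhibited control wells.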

[1] = tested on: colon cancer cells (HCT116); assay: Cancer cell line growth inhibition, Sulforhodamine B assay, HCT116; assay type: cell-based; conditions: Homo sapiens, HCT-116, HCT116 colon cancer cell line; read-out: Cancer Cell Line GI50 Range HCT116
Procedure, shortened: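 GI50 is calculated from growth inhibition relative to DMSO controls, using TCA-fixed, SRB-stained protein mass read at 570 nm. Compound, 10 nM–50 μM final in 10% FBS DMEM, was applied for 5 days to HCT116 cells that had been plated 24 h before at 1000–4000/well.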

[2] = tested on: breast cancer cells (MDA-MB-468); assay: Cancer cell line growth inhibition, Sulforhodamine B assay, MDA-MB-468; assay type: cell-based; conditions: Homo sapiens, MDA-MB-468, MDA-MB-468 breast cancer cell line; read-out: Cancer Cell Line GI50 Range MDA-MB-468
Procedure, shortened: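 Sulforhodamine B staining (TCA-fixed, read at 570 nm) estimates cell mass after 5-day compound treatment of MDA-MB-468 cells, final concentrations 10 nM to 50 μM in 10% FBS DMEM. GI50 derived from growth inhibition versus DMSO controls.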

[3] = tested on: ovarian cancer cells (OVCAR-3); assay: Cancer cell line growth inhibition, Sulforhodamine B assay, OVCAR-3; assay type: cell-based; conditions: Homo sapiens, OVCAR-3, OVCAR-3 ovarian cancer cell line; read-out: Cancer Cell Line GI50 Range OVCAR-3
Procedure, shortened: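 OVCAR-3 cells were seeded 24 h before compound addition, then exposed for 5 days to final concentrations of 10 nM to 50 μM in DMEM with 10% FBS. Growth was measured by TCA fixation and sulforhodamine B staining with absorbance at 570 nm. Inhibition was relative to DMSO-only cells, and GI50 came from curve fitting.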

[4] = tested on: Ovarian 2393A tumor initiating cells; assay: Tumor-initiating cell growth inhibition, Alamar Blue assay, ovarian TICs; assay type: cell-based; conditions: 144 h; Ovarian 2393A TICs, 6 days; read-out: Tumor Initiating Cell GI50 Range Ovarian 2393A
Text: (§1) Non-tissue or tissue cultured treated T-75 flask and 96-well plates were purchased from VWR. Vitamin B-27 supplement, MEM NEAA (minimum essential medium non essential amino acids), sodium pyruvate, L-glutamine, N2 supplement, penicillin-streptomycin and fungizone/amphotericin B were obtained from Invitrogen. Lipid mixture, heparin and EGF were purchased from Sigma; bFGF from BD Biosciences. Tumor Initiating Cells (TICs) from colon were routinely maintained using non-tissue cultured treated T-75 flasks in DMEM:F12 medium containing 0.2XB-27 supplement, 4 ug/ml heparin, 1×MEM NEAA, 1×sodium pyruvate, 1 mM glutamine, 10 pg/ul bFGF, 20 pg/ul EGF, 1× N2 supplement, lipid mixture, penicillin-streptomycin and fungizone/amphotericin B. Ovarian TICs were routinely maintained using tissue cultured treated T-75 flasks in DMEM:F12 medium containing IXB-27 supplement, 4 ug/ml heparin, 20 pg/ul bFGF, 20 pg/ul EGF and penicillin-streptomycin.
(§2) Compounds described herein were dissolved in DMSO and further diluted in cell culture medium for GI50 determination. Colon TICs were trypsinized and seeded into non-tissue cultured treated 96-well plates with 4,000 cells/well. After 24 h, compound was added into the cell culture at different concentrations, and the final concentration of DMSO was adjusted to 0.1%. Cells were then cultured at 37° C. for 9 days. Ovarian TICs were trypsinized and seeded into tissue cultured treated 96-well plates with 1,000 cells/well. After 24 h, compound was added into the cell culture at different concentrations, and the final concentration of DMSO was adjusted to 0.1%. Cells were then cultured at 37° C. for 6 days. Cell viability was assessed by Alamar Blue assay: 10 ul of Alamar Blue was added into each well. After 4 hours incubation at 37° C., fluorescence was recorded at excitation 544 and emission 590. GI50 (Growth inhibition) was calculated using GraphPad Prism 4.0 software.
(§3) In Table 1 below, GI50 value ranges for compound examples against TICs (Colon 12 and Ovarian 2393A) are given.

[5] = tested on: Colon 12 tumor initiating cells; assay: Tumor-initiating cell growth inhibition, Alamar Blue assay, colon TICs; assay type: cell-based; conditions: 216 h; Colon 12 TICs, 9 days; read-out: Tumor Initiating Cell GI50 Range Colon 12
Text: as §1, §2, §3

[6] = 16 μM ATP (Sigma cat# A7699), read-out: TTK IC50 Range (denoted with an asterisk)
[7] = 100 μM ATP, read-out: TTK IC50 Range

SMILES | IC50 (human TTK; [6]) [nM] | GI50 [1] [nM] | GI50 [2] [nM] | GI50 [3] [nM] | GI50 [4] [nM] | GI50 [5] [nM] | IC50 (human TTK; [7]) [nM]
O=C(NC1CC1)c1ccc(-c2cnn3c(NCC4CCOCC4)nc(Oc4ccccc4)nc23)cc1F [Example C7] | < 100 | > 500 | > 500 | > 500 | 100 to 500 | 100 to 500 | 
Cc1cc(-c2cnn3c(NCC4CCOCC4)nc(Oc4ccccc4F)nc23)ccc1C(=O)NC1CC1 [Example C20] | < 100 | ≤ 100 | 100 to 500 | 100 to 500 | 100 to 500 | ≤ 100 | 
Cc1cc(-c2cnn3c(NCC4CCOCC4)nc(Oc4cccc(F)c4)nc23)ccc1C(=O)NC1CC1 [Example C21] | < 100 | ≤ 100 | ≤ 100 | ≤ 100 | ≤ 100 | ≤ 100 | 
Cc1cc(-c2cnn3c(NC[C@H]4CC[C@@H](O)CC4)nc(Oc4cccc(F)c4)nc23)ccc1C(=O)NC1CC1 [Example C24] | < 100 | ≤ 100 | ≤ 100 | ≤ 100 | ≤ 100 | ≤ 100 | 
COc1ccc(Oc2nc(NCC3CCOCC3)n3ncc(-c4ccc(C(=O)NC5CC5)c(C)c4)c3n2)c(F)c1 [Example C25] | < 100 | ≤ 100 | 100 to 500 | 100 to 500 | 100 to 500 | ≤ 100 | 
Cc1cc(-c2cnn3c(NCCN4CCOCC4)nc(Oc4cccc(F)c4F)nc23)ccc1C(=O)NC1CC1 [Example C26] | < 100 | ≤ 100 | 100 to 500 | 100 to 500 | ≤ 100 | ≤ 100 | 
Cc1cc(-c2cnn3c(NCC4(F)CCN(C)CC4)cc(Oc4cccc(F)c4)nc23)ccc1C(=O)NC1CC1 [Example C28] |  | ≤ 100 | ≤ 100 | ≤ 100 | ≤ 100 | ≤ 100 | < 100
Cc1cc(-c2cnn3c(NCCN4CCOCC4)cc(Oc4cccc(F)c4)nc23)ccc1C(=O)NC1CC1 [Example C31, N-cyclopropyl-4-(5-(3-fluorophenoxy)-7-((2-morpholinoethyl)amino)pyrazolo[1,5-a]pyrimidin-3-yl)-2-methylbenzamide] |  | ≤ 100 | ≤ 100 | ≤ 100 | ≤ 100 | ≤ 100 | < 100
Cc1cc(-c2cnn3c(NCCN4CCOCC4)cc(Oc4cccc(F)c4F)nc23)ccc1C(=O)NC1CC1 [Example C32, N-cyclopropyl-4-(5-(2,3-difluorophenoxy)-7-((2-morpholinoethyl)amino)pyrazolo[1,5-a]pyrimidin-3-yl)-2-methylbenzamide] |  | ≤ 100 | ≤ 100 | ≤ 100 | ≤ 100 | ≤ 100 | < 100

Second part, the molecule after the results:

IC50 (human TTK; [6]) [nM] | GI50 [1] [nM] | GI50 [2] [nM] | GI50 [3] [nM] | GI50 [4] [nM] | GI50 [5] [nM] | IC50 (human TTK; [7]) [nM] | SMILES
< 100 | > 500 | > 500 | > 500 | > 500 | > 500 |  | Cc1cc(-c2cnn3c(NCC4CCOCC4)nc(Nc4ccccc4)nc23)ccc1C(=O)NC1CC1 [Example C10]
 | ≤ 100 | ≤ 100 | ≤ 100 | ≤ 100 | ≤ 100 | < 100 | Cc1cc(-c2cnn3c(NCC4COC4)cc(N[C@H]4CCCC[C@H]4O)nc23)ccc1C(=O)NC1CC1 [Example C37, N-cyclopropyl-4-(5-(((1S,2R)-2-hydroxycyclohexyl)amino)-7-((oxetan-3-ylmethyl)amino)pyrazolo[1,5-a]pyrimidin-3-yl)-2-methylbenzamide]
 | ≤ 100 | ≤ 100 | ≤ 100 | ≤ 100 | ≤ 100 | < 100 | Cc1cc(-c2cnn3c(NCC4CCOCC4)cc(N[C@H](CO)C(C)C)nc23)ccc1C(=O)NC1CC1 [Example C38, (S)-N-cyclopropyl-4-(5-((1-hydroxy-3-methylbutan-2-yl)amino)-7-(((tetrahydro-2H-pyran-4-yl)methyl)amino)pyrazolo[1,5-a]pyrimidin-3-yl)-2-methylbenzamide]
 | ≤ 100 | ≤ 100 | ≤ 100 | ≤ 100 | ≤ 100 | < 100 | Cc1cc(-c2cnn3c(NCC4CCOCC4)cc(N[C@H]4CCCC[C@H]4O)nc23)ccc1C(=O)NC1CC1 [Example C39, N-cyclopropyl-4-(5-(((1S,2R)-2-hydroxycyclohexyl)amino)-7-(((tetrahydro-2H-pyran-4-yl)methyl)amino)pyrazolo[1,5-a]pyrimidin-3-yl)-2-methylbenzamide]
 | ≤ 100 | ≤ 100 | 100 to 500 | 100 to 500 | ≤ 100 | < 100 | Cc1cc(-c2cnn3c(NCC4CCOCC4)cc(N[C@@H](C(C)C)C(C)(C)O)nc23)ccc1C(=O)NC1CC1 [Example C40, (S)-N-cyclopropyl-4-(5-((2-hydroxy-2,4-dimethylpentan-3-yl)amino)-7-(((tetrahydro-2H-pyran-4-yl)methyl)amino)pyrazolo[1,5-a]pyrimidin-3-yl)-2-methylbenzamide]
 | ≤ 100 | ≤ 100 | ≤ 100 | 100 to 500 | ≤ 100 | < 100 | Cc1cc(-c2cnn3c(NCC4CCOCC4)cc(N[C@@H](C4CC4)C(C)(C)O)nc23)ccc1C(=O)NC1CC1 [Example C41, (S)-N-cyclopropyl-4-(5-((1-cyclopropyl-2-hydroxy-2-methylpropyl)amino)-7-(((tetrahydro-2H-pyran-4-yl)methyl)amino)pyrazolo[1,5-a]pyrimidin-3-yl)-2-methylbenzamide]
 | ≤ 100 | ≤ 100 | ≤ 100 | ≤ 100 | ≤ 100 | < 100 | Cc1cc(-c2cnn3c(NCC4CC4)cc(N[C@H]4CCCC[C@H]4O)nc23)ccc1C(=O)NC1CC1 [Example C42, N-cyclopropyl-4-(7-((cyclopropylmethyl)amino)-5-(((1S,2R)-2-hydroxycyclohexyl)amino)pyrazolo[1,5-a]pyrimidin-3-yl)-2-methylbenzamide]
